Experimental data published in ChEMBL document CHEMBL1145503, “Paradoxical effect of Echinocandins across Candida species in vitro: evidence for echinocandin-specific and candida species-related differences” (2007).
Converted amounts (≈) assume the structure as drawn. Numbered stars: 1 amine (or outer) side, 2 acyl side, 3 side chain; on linkers, the order of the positions; unused ones are H or OH. Bridge positions count the residues as written; N and C are the ends. Square brackets hold non-standard residues; d marks the D form. Peptide text beside a SMILES is read from it. * marks the point of attachment. hTyr(3S-OH,4S-OH,3'-OSO3H) = N[C@H](C(=O)O)[C@H](O)[C@@H](O)c1ccc(O)c(OS(=O)(=O)O)c1; pTerphenylCO(4''-OnC5H11) = CCCCCOc1ccc(-c2ccc(-c3ccc(C(=O)*)cc3)cc2)cc1; Orn(4R-OH,5R-OH) = O=C([C@H](C[C@@H](O)[C@@H](O)N[*:3])N[*:1])[*:2]; hTyr(3S-OH,4S-OH) = N[C@H](C(=O)O)[C@H](O)[C@@H](O)c1ccc(O)cc1; Pro(3S-OH,4S-Me) = C[C@H]1CN[C@H](C(=O)O)[C@H]1O; X1 = CCCCCOc1ccc(-c2cc(-c3ccc(C(=O)*)cc3)no2)cc1; Gln(3R-OH) = NC(=O)C[C@@H](O)[C@H](N)C(=O)O; Hyp = O=C(O)[C@@H]1C[C@@H](O)CN1

Key:
Assay type in all cases: functional
Pichia kudriavzevii [1] = assay: Paradoxical effect in Candida krusei assessed as increase in turbidity at 16 times MIC
Nakaseomyces glabratus [2] = assay: Antifungal activity against Candida glabrata after 48 hrs
Candida parapsilosis [3] = assay: Paradoxical effect in Candida parapsilosis assessed as increase in turbidity at 16 times MIC
Pichia kudriavzevii [4] = assay: Antifungal activity against Candida krusei after 48 hrs
Candida albicans [5] = assay: Antifungal activity against Candida albicans after 48 hrs
Candida tropicalis [6] = assay: Antifungal activity against Candida tropicalis after 48 hrs
Candida tropicalis [7] = assay: Paradoxical effect in Candida tropicalis assessed as increase in turbidity at 16 times MIC
Candida parapsilosis [8] = assay: Antifungal activity against Candida parapsilosis after 48 hrs; details: Lodderomyces parapsilosis
Nakaseomyces glabratus [9] = assay: Paradoxical effect in Candida glabrata assessed as increase in turbidity at 16 times MIC
Candida albicans [10] = assay: Paradoxical effect in Candida albicans assessed as increase in turbidity at 16 times MIC
Candida albicans [11] = assay: Paradoxical effect in Candida albicans assessed as increase in turbidity at 64 times MIC
Nakaseomyces glabratus [12] = assay: Paradoxical effect in Candida glabrata assessed as increase in turbidity at 64 times MIC
Candida tropicalis [13] = assay: Paradoxical effect in Candida tropicalis assessed as increase in turbidity at 64 times MIC
Candida parapsilosis [14] = assay: Paradoxical effect in Candida parapsilosis assessed as increase in turbidity at 64 times MIC
Pichia kudriavzevii [15] = assay: Paradoxical effect in Candida krusei assessed as increase in turbidity at 64 times MIC
Pichia kudriavzevii [16] = assay: Paradoxical effect in Candida krusei assessed as increase in turbidity at 96 times MIC
Candida parapsilosis [17] = assay: Paradoxical effect in Candida parapsilosis assessed as increase in turbidity at 96 times MIC
Candida albicans [18] = assay: Paradoxical effect in Candida albicans assessed as increase in turbidity at 96 times MIC
Candida tropicalis [19] = assay: Paradoxical effect in Candida tropicalis assessed as increase in turbidity at 96 times MIC
Nakaseomyces glabratus [20] = assay: Paradoxical effect in Candida glabrata assessed as increase in turbidity at 96 times MIC

SMILES | MIC50 (Nakaseomyces glabratus [2]) | MIC90 (Nakaseomyces glabratus [2]) | MIC50 (Pichia kudriavzevii [4]) | MIC90 (Pichia kudriavzevii [4]) | MIC50 (Candida albicans [5]) | MIC90 (Candida albicans [5]) | MIC50 (Candida tropicalis [6]) | MIC90 (Candida tropicalis [6]) | MIC50 (Candida parapsilosis [8]) | MIC90 (Candida parapsilosis [8]) | also measured
CCCCCOc1ccc(-c2ccc(-c3ccc(C(=O)N[C@H]4C[C@@H](O)[C@@H](O)NC(=O)[C@@H]5[C@@H](O)[C@@H](C)CN5C(=O)[C@H]([C@@H](C)O)NC(=O)[C@H]([C@H](O)[C@@H](O)c5ccc(O)cc5)NC(=O)[C@@H]5C[C@@H](O)CN5C(=O)[C@H]([C@@H](C)O)NC4=O)cc3)cc2)cc1 [ANIDULAFUNGIN] ({pTerphenylCO(4''-OnC5H11)}-[Orn(4R-OH,5R-OH)]T[Hyp][hTyr(3S-OH,4S-OH)]T[Pro(3S-OH,4S-Me)]; lactam 1-C) | 0.5 µg/mL (≈ 0.438 µM) | 0.5 µg/mL (≈ 0.438 µM) | 0.25 µg/mL (≈ 0.219 µM) | 0.25 µg/mL (≈ 0.219 µM) | 0.5 µg/mL (≈ 0.438 µM) | 1 µg/mL (≈ 0.877 µM) | 0.5 µg/mL (≈ 0.438 µM) | 1 µg/mL (≈ 0.877 µM) | 0.5 µg/mL (≈ 0.438 µM) | 0.5 µg/mL (≈ 0.438 µM) | Activity (Pichia kudriavzevii [1]): 0%; Activity (Candida parapsilosis [3]): 0%; Activity (Candida tropicalis [7]): 20%; Activity (Nakaseomyces glabratus [9]): 0%; Activity (Candida albicans [10]): 40%
CC[C@H](C)C[C@H](C)CCCCCCCCC(=O)N[C@H]1C[C@@H](O)[C@@H](NCCN)NC(=O)[C@@H]2[C@@H](O)CCN2C(=O)[C@H]([C@H](O)CCN)NC(=O)[C@H]([C@H](O)[C@@H](O)c2ccc(O)cc2)NC(=O)[C@@H]2C[C@@H](O)CN2C(=O)[C@H]([C@@H](C)O)NC1=O [CASPOFUNGIN] | 0.25 µg/mL (≈ 0.229 µM) | 0.5 µg/mL (≈ 0.457 µM) | 0.06 µg/mL (≈ 0.0549 µM) | 1 µg/mL (≈ 0.915 µM) | 0.125 µg/mL (≈ 0.114 µM) | 0.25 µg/mL (≈ 0.229 µM) | 1 µg/mL (≈ 0.915 µM) | 1 µg/mL (≈ 0.915 µM) | 0.5 µg/mL (≈ 0.457 µM) | 1 µg/mL (≈ 0.915 µM) | Activity (Candida albicans [11]): 60%; Activity (Nakaseomyces glabratus [12]): 0%; Activity (Candida tropicalis [13]): 40%; Activity (Candida parapsilosis [14]): 90%; Activity (Pichia kudriavzevii [15]): 10%
CCCCCOc1ccc(-c2cc(-c3ccc(C(=O)N[C@H]4C[C@@H](O)[C@@H](O)NC(=O)[C@@H]5[C@@H](O)[C@@H](C)CN5C(=O)[C@H]([C@H](O)CC(N)=O)NC(=O)[C@H]([C@H](O)[C@@H](O)c5ccc(O)c(OS(=O)(=O)O)c5)NC(=O)[C@@H]5C[C@@H](O)CN5C(=O)[C@H]([C@@H](C)O)NC4=O)cc3)no2)cc1 [MICAFUNGIN] (X1-[Orn(4R-OH,5R-OH)]T[Hyp][hTyr(3S-OH,4S-OH,3'-OSO3H)][Gln(3R-OH)][Pro(3S-OH,4S-Me)]; lactam 1-C) | 0.06 µg/mL (≈ 0.0472 µM) | 0.125 µg/mL (≈ 0.0984 µM) | 0.5 µg/mL (≈ 0.394 µM) | 0.5 µg/mL (≈ 0.394 µM) | 0.25 µg/mL (≈ 0.197 µM) | 0.25 µg/mL (≈ 0.197 µM) | 0.06 µg/mL (≈ 0.0472 µM) | 0.06 µg/mL (≈ 0.0472 µM) | 1 µg/mL (≈ 0.787 µM) | 2 µg/mL (≈ 1.57 µM) | Activity (Pichia kudriavzevii [16]): 60%; Activity (Candida parapsilosis [17]): 0%; Activity (Candida albicans [18]): 0%; Activity (Candida tropicalis [19]): 70%; Activity (Nakaseomyces glabratus [20]): 0%
